Test results taken from patent publication US4022900A, “Compositions containing 1,2,3,4-tetrahydroisoquinolines used as hypotensive agents” (Marion Laboratories, Inc., priority 1972, dated 1977).
Counter-ions that a name gives are not always drawn. Like-named read-outs stand apart in the source and are kept apart here.

How the values were obtained:
[1] = Acute toxicity (LD50) in the mouse; details: in vivo; for LD50: Table I, unit, species and route not given; for LD50 at 24 h: ip, read-out: Approximate Acute Toxicity (24 hrs.) In the Mouse, LD50
Protocol: 5-(3,4,5-trimethoxybenzamido)-2-methyl-1,2,3,4-tetrahydroisoquinoline (M-20) in mice has an LD-50 of about 125 to 250 mg/kg intraperitoneally.
(§1) Additional compounds have been tested. The toxicity data for the additional compounds tested, and their identity, is given in the following Table II while the blood pressure lowering activity of the compounds is given in the following Table III. The heading "Example Number" in the tables refers to the working example herein which discloses the compounds and its preparation. The test procedure used for determining the blood pressure lowering activity of the compounds is the same as that previously set forth herein. However, the figures in Table III are expressed as percentage change in blood pressure, rather than in mm of mercury change in blood pressure, as presented in Table I herein.
Approximate Acute Toxicity (24 hrs.)
(a) Suspension in 1% tragacanth
(b) Solution in distilled water
(c) Solubilized with the aid of dilute acid

[2] = tested on: systolic blood pressure of deoxycorticosterone acetate hypertensive rats; test: Hypotensive activity in DCA/saline hypertensive rats (systolic blood pressure, tail cuff); format: in vivo, rat (male, CD strain); details: for Lowering of Blood Pressure in Hypertensive rate in mm's of Hg., 1 hr. / Lowering of Blood Pressure in Hypertensive rate in mm's of Hg., 2 hrs. / Lowering of Blood Pressure in Hypertensive rate in mm's of Hg., 4 hrs. / Lowering of Blood Pressure in Hypertensive rate in mm's of Hg., 24 hrs. / compounds which appear most active from Table I: 50 mg/kg intraperitoneal; for Lowering of Blood Pressure in Hypertensive rate in mm's of Hg., 1 hr. / Lowering of Blood Pressure in Hypertensive rate in mm's of Hg., 2 hrs. / Lowering of Blood Pressure in Hypertensive rate in mm's of Hg., 4 hrs. / Lowering of Blood Pressure in Hypertensive rate in mm's of Hg., 24 hrs.: change vs predrug control, six rats; for compounds which appear most active from Table I: qualitative ranking; for Percent Change in Pressure from Control ± S.E., 1 Hour / Percent Change in Pressure from Control ± S.E., 2 Hours / Percent Change in Pressure from Control ± S.E., 4 Hours / Percent Change in Pressure from Control ± S.E., 24 Hours: 50 mg/kg i.p., systolic pressure, * <0.05 significance (Newman-Keuls)
Protocol: Hypertension was produced in weanling (30-day old) male rats of the CD strain obtained from the Charles River Breeding Laboratories (Wilmington, Mass.) by subcutaneously implanting about the dorsal surface of the neck a pellet of deoxycorticosterone acetate (DCA) containing 10 mg DCA in a mixture of Carbowax 4000 (Union Carbide) and Flexowax C light (Glyco Products). Their drinking water was replaced by a 1% sodium chloride solution, a procedure known to facilitate the development of an experimental hypertension, and they had free access to chow. Systolic blood pressure in the caudal arteries was measured indirectly by a pneumatic pulse transducer and a tail pressure cuff on a Physiograph Four recorder (Narco Bio-Systems, Inc., Houston, Texas) in unanesthetized but restrained rats prewarmed to 40° C., 10-15 minutes prior to the determination. The rats were kept at a temperature of 40° C. for all determinations of systolic pressure in an attempt to minimize variations in blood pressure due to marked changes in arterial tone caused by changes in temperature. Blood pressures were measured at intervals in the DCA-treated rats given saline and in non-treated control rats. After 20 days, the mean systolic pressure in the DCA-treated rats was above 150 mm Hg. Hypertension was regarded as being established in the rats at this stage and they were at intervals, usually beginning with the 30th day after DCA-implant in testing for hypotensive activity. Following a series of control blood pressure readings, a dose of 50 mg/kg of the compound under investigation was administered by intraperitoneal injection either in solution or as a suspension in 1% tragacanth solution to groups of six hypertensive rats. Blood pressures were redetermined at 1, 2, 4 and 24 hour periods following injection. At each interval, the systolic pressure was measured a minimum of five times in each rat and the average value was calculated. Mean values for the group were calculated from the individual average values and compared with their predrug control levels. The statistical significance of the changes produced by the compounds, in the doses employed, was tested by the "t" test as well as by an analysis of variance. The reductions in blood pressure obtained with the indicated representative tetrahydroisoquinoline compounds are shown in Table I. The code number for the compound and the example herein showing its preparation are both given in Table I.
as §1

[3] = solubilized with the aid of dilute acid

SMILES	LD50 [1] [mg/kg]	Lowering of Blood Pressure in Hypertensive rate in mm's of Hg., 1 hr. [2]	Lowering of Blood Pressure in Hypertensive rate in mm's of Hg., 2 hrs. [2]	Lowering of Blood Pressure in Hypertensive rate in mm's of Hg., 4 hrs. [2]	Lowering of Blood Pressure in Hypertensive rate in mm's of Hg., 24 hrs. [2]	compounds which appear most active from Table I [2]	LD50 at 24 h [1, 3] [mg/kg]	Percent Change in Pressure from Control ± S.E., 1 Hour [2] [%]	Percent Change in Pressure from Control ± S.E., 2 Hours [2] [%]	Percent Change in Pressure from Control ± S.E., 4 Hours [2] [%]	Percent Change in Pressure from Control ± S.E., 24 Hours [2]	LD50 at 24 h ([1]; solution in distilled water) [mg/kg]
COc1cc(C(=O)Nc2cccc3c2CN(C)CC3)cc(OC)c1OC [M-65, 8-(3,4,5-Trimethoxybenzamido)-2-methyl-1,2,3,4-tetrahydroisoquinoline]	250 to 500	-55±10 mm's of Hg	-44±8 mm's of Hg	-27±3 mm's of Hg	-21±7 mm's of Hg	most active						
CN1CCc2c(cccc2NC(=O)c2ccccc2Br)C1 [M-60, 5-(2-Bromobenzamido)-2-methyl-1,2,3,4-tetrahydroisoquinoline]	125 to 250	-12±4 mm's of Hg	-10±8 mm's of Hg	-20±3 mm's of Hg	-26±4 mm's of Hg							
CN1CCc2c(cccc2NC(=O)c2ccccc2)C1 [M-54, 5-(benzamido)-2-methyl-1,2,3,4-tetrahydroisoquinoline]	125 to 250	-7±7 mm's of Hg	-14±6 mm's of Hg	-15±6 mm's of Hg	-10±3 mm's of Hg							
COc1ccc(C(=O)Nc2cccc3c2CCN(C)C3)cc1 [M-56, 5-(4-Methoxybenzamido)-2-methyl-1,2,3,4-tetrahydroisoquinoline]	62 to 125	-14±5 mm's of Hg	-30±8 mm's of Hg	-19±6 mm's of Hg	-18±4 mm's of Hg							
Cc1cccc(C)c1C(=O)Nc1cccc2c1CCN(C)C2 [M-58, 5-(2,6-Dimethylbenzamido)-2-methyl-1,2,3,4-tetrahydroisoquinoline]							125 to 250	-6.1 ± 1.7	-2.4 ± 0.6	-5.2 ± 1.8	+2.0 ± 2.1%	
COc1cccc(OC)c1C(=O)Nc1cccc2c1CCN(C)C2 [M-57, 5-(2,6-Dimethoxybenzamido)-2-methyl-1,2,3,4-tetrahydroisoquinoline]	250 to 500	-2±8 mm's of Hg	-7±5 mm's of Hg	-14±10 mm's of Hg	-14±10 mm's of Hg							
CCCN1CCc2c(cccc2NC(=O)c2ccc(OC)c(OC)c2)C1 [M-47, 5-(3,4-Dimethoxybenzamido)-2-n-propyl-1,2,3,4-tetrahydroisoquinoline]	250 to 500	-35±7 mm's of Hg	-46±11 mm's of Hg	-41±8 mm's of Hg	-22±4 mm's of Hg	most active						
COc1cc(C(=O)Nc2ccc3c(c2)CCN(C)C3)cc(OC)c1OC [M-72, 6-(3,4,5-Trimethoxybenzamido)-2-methyl-1,2,3,4-tetrahydroisoquinoline HCl]								-21.6 ± 1.7	-19.4 ± 4.0	-11.9 ± 3.4	-3.8 ± 1.3%	188 to 250
CCCN1CCc2c(cccc2NC(=O)c2cc(OC)c(OC)c(OC)c2)C1 [M-49, 5-(3,4,5-Trimethoxybenzamido)-2-n-propyl-1,2,3,4-tetrahydroisoquinoline]	125 to 250	-31±6 mm's of Hg	-27±6 mm's of Hg	-21±6 mm's of Hg	-17±6 mm's of Hg	most active						
CN1CCc2c(cccc2NC(=O)c2ccccc2I)C1 [M-70, 5-(2-Iodobenzamido)-2-methyl-1,2,3,4-tetrahydroisoquinoline]							< 31	-6.8 ± 2.1	-9.9 ± 2.1	-5.7 ± 1.9	-0.7 ± 2.9%	
CCCN1CCc2c(cccc2NC(=O)c2ccc(OC)cc2)C1 [M-50, 5-(4-methoxybenzamido)-2-n-propyl-1,2,3,4-tetrahydroisoquinoline]							125 to 250	-11.3 ± 1.9	-17.8 ± 1.4	-10.2 ± 2.8	-6.2%	
CN1CCc2c(cccc2NC(=O)c2ccccc2F)C1 [M-68, 5-(2-Fluorobenzamido)-2-methyl-1,2,3,4-tetrahydroisoquinoline]	250 to 500	-13±5 mm's of Hg	-10±5 mm's of Hg	-11±4 mm's of Hg	-20±4 mm's of Hg							
COc1cc(C(=O)Nc2cccc3c2CCNC3)cc(OC)c1OC [M-46, 5-(3,4,5-Trimethoxybenzamido)-1,2,3,4-tetrahydroisoquinoline HCl]	250 to 500	-26±10 mm's of Hg	-25±7 mm's of Hg	-11±4 mm's of Hg	-18±4 mm's of Hg							
CN1CCc2c(cccc2NC(=O)c2ccccc2Cl)C1 [M-63, 5-(2-Chlorobenzamido)-2-methyl-1,2,3,4-tetrahydroisoquinoline]	125 to 188	-25±2 mm's of Hg	-36±4 mm's of Hg	-34±4 mm's of Hg	-28±4 mm's of Hg	most active						
COc1cc(C(=O)Nc2ccc3c(c2)CN(C)CC3)cc(OC)c1OC [M-59, 7-(3,4,5-Trimethoxybenzamido)-2-methyl-1,2,3,4-tetrahydroisoquinoline]	250 to 500	-60±7 mm's of Hg	-46±7 mm's of Hg	-34±6 mm's of Hg	-18±7 mm's of Hg	most active						
CN1CCc2c(cccc2NC(=O)c2ccccc2[N+](=O)[O-])C1 [M-69, 5-(2-Nitrobenzamido)-2-methyl-1,2,3,4-tetrahydroisoquinoline]							125 to 250		-4.1 ± 3.0	-3.3 ± 4.0	-1.0 ± 3.0%	
